From ChEMBL document CHEMBL1201862, “PubChem BioAssay data set” (2004)
Activity calls are given as the source filed them.

Key:
[1] = target: T1, Mannose-6-phosphate isomerase (Homo sapiens, UniProt P34949); assay: inhibitors of human PMI, primary screen, biochemical, fluorescence intensity, coupled assay (AID 1209)
T1 sequence (P34949 whole entry): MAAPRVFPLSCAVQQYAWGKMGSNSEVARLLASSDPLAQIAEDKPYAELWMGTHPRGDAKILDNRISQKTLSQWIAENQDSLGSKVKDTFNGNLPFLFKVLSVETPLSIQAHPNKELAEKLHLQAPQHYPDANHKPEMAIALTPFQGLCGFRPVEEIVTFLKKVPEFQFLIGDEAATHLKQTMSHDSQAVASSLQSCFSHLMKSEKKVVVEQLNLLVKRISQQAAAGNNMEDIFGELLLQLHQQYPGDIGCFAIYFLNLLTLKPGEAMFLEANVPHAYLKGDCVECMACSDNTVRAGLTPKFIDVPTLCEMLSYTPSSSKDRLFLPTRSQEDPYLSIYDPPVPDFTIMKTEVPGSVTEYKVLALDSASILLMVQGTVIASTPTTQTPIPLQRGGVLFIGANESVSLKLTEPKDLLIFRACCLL

[2] = A549 cell cytotoxicity, dose response, cytotoxicity control, plate reader, cherry-pick, antagonist series (AID 743412); assay type: functional, cell-based
[3] = HEK293 cell cytotoxicity, dose response, cytotoxicity control, plate reader, cherry-picked samples (AID 743446); assay type: functional, cell-based
[4] = target: T2, Heat shock factor protein 1 (Mus musculus, UniProt P38532); assay: HSF1 potentiators in luciferase reporter cells, confirmation, cell-based, NIH3T3, luminescence, dose retest (AID 435004); assay type: functional;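 further: stress induced by proteasome inhibitor MG132 added 30 min after compound; luciferase reporter driven by HSF1 response element in NIH3T3 cells; actives raise luminescence as potentiators of the MG132 stress response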
T2 sequence (P38532 whole entry): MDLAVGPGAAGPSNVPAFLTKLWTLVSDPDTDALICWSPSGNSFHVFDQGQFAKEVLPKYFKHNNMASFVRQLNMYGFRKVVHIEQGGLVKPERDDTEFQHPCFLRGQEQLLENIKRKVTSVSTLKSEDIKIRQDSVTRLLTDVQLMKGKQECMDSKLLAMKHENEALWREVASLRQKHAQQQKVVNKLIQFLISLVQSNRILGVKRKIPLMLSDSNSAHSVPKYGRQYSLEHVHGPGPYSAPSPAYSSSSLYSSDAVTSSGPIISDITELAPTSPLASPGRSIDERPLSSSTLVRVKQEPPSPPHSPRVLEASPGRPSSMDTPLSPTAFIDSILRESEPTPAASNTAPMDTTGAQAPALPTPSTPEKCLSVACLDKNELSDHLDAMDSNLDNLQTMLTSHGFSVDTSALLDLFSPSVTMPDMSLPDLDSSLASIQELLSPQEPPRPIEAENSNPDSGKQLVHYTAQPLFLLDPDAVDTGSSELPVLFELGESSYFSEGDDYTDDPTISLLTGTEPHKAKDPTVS

[5] = LGR2 antagonists, dose response, cell-based, HEK293, CRE-luciferase reporter, cherry pick, set 2 (AID 743343); assay type: functional;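 further: transfected cells were stimulated with diluted bursicon conditioned medium after compound addition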
[6] = target: T3, Carboxy-terminal domain RNA polymerase II polypeptide A small phosphatase 1 (Homo sapiens, UniProt Q9GZU7); assay: inhibitors of CTDSP1, concentration-response testing, biochemical assay, absorbance-based, actives from ultra-high-throughput screening (AID 540297); assay type: functional
T3 sequence (Q9GZU7 whole entry): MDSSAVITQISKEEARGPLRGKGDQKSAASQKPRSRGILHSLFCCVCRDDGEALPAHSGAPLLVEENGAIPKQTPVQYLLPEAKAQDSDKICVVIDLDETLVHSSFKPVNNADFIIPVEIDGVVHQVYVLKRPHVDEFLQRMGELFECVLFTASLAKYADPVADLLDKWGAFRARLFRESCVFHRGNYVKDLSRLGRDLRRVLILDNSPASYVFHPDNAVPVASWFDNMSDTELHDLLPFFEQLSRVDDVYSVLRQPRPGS

Estrogen receptor = target: T4, Estrogen receptor (Homo sapiens, UniProt P03372);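 further: potency for inhibiting coactivator peptide recruitment to the receptor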
T4 sequence (P03372 whole entry): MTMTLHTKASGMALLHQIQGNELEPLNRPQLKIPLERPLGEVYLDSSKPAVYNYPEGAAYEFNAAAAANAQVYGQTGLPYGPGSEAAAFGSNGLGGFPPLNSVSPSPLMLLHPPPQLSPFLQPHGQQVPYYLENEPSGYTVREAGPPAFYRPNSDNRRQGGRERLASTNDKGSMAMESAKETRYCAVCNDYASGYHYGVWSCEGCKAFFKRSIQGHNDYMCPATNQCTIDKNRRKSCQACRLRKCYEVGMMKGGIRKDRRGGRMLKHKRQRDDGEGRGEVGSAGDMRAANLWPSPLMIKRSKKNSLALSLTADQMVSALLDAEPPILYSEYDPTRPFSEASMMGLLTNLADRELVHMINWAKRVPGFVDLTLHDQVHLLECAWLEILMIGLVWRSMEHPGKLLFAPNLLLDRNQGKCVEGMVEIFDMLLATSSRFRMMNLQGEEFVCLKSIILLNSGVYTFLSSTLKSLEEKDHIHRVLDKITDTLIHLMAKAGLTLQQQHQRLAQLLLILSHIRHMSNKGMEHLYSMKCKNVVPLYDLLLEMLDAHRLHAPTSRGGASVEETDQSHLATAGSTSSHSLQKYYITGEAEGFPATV

Estrogen receptor beta [7] = target: T5, Estrogen receptor beta (Homo sapiens, UniProt Q92731); assay: ERβ–SRC-3 coactivator interaction inhibitors, confirmation, orthogonal assay, biochemical, ELISA, streptavidin-HRP readout (AID 1060)
T5 sequence (Q92731 whole entry): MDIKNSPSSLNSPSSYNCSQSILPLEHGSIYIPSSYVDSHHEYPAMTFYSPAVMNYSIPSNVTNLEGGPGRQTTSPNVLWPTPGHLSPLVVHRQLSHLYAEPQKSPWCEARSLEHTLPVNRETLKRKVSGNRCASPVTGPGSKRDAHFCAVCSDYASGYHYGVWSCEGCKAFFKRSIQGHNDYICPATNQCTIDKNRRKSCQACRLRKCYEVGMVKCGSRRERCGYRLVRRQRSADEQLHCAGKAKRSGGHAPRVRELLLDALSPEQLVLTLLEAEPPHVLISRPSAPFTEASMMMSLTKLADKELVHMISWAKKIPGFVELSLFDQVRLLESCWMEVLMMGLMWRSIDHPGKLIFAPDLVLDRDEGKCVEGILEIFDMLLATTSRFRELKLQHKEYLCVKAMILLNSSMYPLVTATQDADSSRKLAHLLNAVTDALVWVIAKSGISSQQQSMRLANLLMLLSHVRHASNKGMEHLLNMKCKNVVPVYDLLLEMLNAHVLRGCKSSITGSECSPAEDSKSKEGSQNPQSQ

Estrogen receptor beta [8] = target: T5, Estrogen receptor beta
Prothrombin = Prothrombin (Homo sapiens, UniProt P00734); assay: Thrombin 1536 HTS Dose Response Confirmation. [Related pubchem assays: 1046 (Thrombin 1536 HTS; hits were confirmed in this assay)]; assay type: functional
[9] = inhibitors of Vif binding to APOBEC3G peptide, primary screen, biochemical, TR-FRET, GST-Vif 1-94, biotin-A3G peptide, dose response retest (AID 1117319); assay type: functional;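 further: TR-FRET signal of purified GST-Vif binding a biotinylated A3G peptide; inhibitors lower the FRET signal by blocking Vif and A3G binding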
[10] = target: Induced myeloid leukemia cell differentiation protein Mcl-1 (Homo sapiens, UniProt Q07820); assay type: functional
Induced myeloid leukemia cell differentiation protein Mcl-1, sequence (Q07820 whole entry): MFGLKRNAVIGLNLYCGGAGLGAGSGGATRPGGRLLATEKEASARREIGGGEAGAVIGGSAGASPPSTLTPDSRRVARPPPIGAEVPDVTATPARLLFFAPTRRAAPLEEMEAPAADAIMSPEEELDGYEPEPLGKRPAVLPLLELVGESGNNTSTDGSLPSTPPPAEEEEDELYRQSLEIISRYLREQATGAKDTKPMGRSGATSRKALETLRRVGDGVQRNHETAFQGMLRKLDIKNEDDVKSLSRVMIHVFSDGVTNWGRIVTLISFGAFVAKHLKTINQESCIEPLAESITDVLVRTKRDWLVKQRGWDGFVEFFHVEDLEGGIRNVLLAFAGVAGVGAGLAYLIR

[11] = MC4R antagonists, dose response, counter-screen for LGR2 antagonist project, cell-based, plate reader, cherry pick (AID 743444); assay type: functional;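 further: transfected HEK 293 cells stimulated with alpha-MSH peptide; potency of inhibitors of the alpha-MSH evoked signal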
Protein skinhead-1 = target: T6, Protein skinhead-1 (Caenorhabditis elegans, UniProt P34707); assay type: functional
T6 sequence (P34707 whole entry): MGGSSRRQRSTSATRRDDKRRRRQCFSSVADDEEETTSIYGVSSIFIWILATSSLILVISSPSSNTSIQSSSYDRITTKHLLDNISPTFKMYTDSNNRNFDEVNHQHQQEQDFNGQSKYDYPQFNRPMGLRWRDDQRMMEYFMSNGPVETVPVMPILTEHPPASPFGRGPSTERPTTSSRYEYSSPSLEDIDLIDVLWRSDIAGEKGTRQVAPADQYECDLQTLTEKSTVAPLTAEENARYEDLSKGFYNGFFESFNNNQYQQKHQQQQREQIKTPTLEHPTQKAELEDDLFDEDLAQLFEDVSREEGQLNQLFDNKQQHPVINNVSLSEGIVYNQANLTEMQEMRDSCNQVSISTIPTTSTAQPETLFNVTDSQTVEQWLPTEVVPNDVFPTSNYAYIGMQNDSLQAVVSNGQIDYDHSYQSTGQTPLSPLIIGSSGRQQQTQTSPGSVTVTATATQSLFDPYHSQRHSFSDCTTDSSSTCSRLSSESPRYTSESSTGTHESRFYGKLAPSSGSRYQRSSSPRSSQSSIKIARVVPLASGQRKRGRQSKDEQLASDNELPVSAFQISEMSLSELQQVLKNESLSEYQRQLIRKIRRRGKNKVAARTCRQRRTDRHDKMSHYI

[12] = target: T7, Small ubiquitin-related modifier 1 (Homo sapiens, UniProt P63165); assay: inhibitors of SUMO1 partner interactions, dose response, biochemical, FRET (AID 624383); assay type: functional; details: read-out: IC50_Mean
T7 sequence (P63165 whole entry): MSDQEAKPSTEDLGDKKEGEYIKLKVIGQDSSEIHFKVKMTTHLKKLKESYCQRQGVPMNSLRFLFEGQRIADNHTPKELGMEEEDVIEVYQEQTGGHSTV

[13] = Luminescence Cell-Based Dose Retest to Confirm Inhibitors of Cancer Stem Cells. [Related pubchem assays (depositor defined):AID2717, AID2721]; assay type: functional; details: Homo sapiens
[14] = target: Luciferin 4-monooxygenase (Photinus pyralis, UniProt P08659); assay: firefly luciferase enzyme inhibitors, dose response, biochemical, luminescence (AID 1891)
Luciferin 4-monooxygenase, sequence (P08659 whole entry): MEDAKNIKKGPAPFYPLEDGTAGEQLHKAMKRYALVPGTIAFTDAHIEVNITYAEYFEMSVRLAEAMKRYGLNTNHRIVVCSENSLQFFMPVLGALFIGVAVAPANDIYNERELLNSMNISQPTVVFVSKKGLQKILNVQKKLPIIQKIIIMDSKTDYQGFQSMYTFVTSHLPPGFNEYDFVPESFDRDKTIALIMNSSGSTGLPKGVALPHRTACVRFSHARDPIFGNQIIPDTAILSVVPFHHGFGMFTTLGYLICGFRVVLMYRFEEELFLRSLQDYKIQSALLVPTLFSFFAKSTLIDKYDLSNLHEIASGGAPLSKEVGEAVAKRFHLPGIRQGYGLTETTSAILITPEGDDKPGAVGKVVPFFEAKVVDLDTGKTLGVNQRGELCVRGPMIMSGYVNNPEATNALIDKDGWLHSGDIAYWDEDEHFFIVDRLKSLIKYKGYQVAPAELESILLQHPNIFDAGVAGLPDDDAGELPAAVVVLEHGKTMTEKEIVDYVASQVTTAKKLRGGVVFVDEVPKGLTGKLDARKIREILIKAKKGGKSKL

[15] = Luminescence Cell-Based Dose Confirmation HTS to Identify Inhibitors of Platelet Dense Granule Release. [Related pubchem assays: 1663 (Primary HTS), 1678 (Summary of Project)]; assay type: functional
[16] = target: T7, Small ubiquitin-related modifier 1; assay: inhibitors of SUMO1 peptide binding, dose response, biochemical, fluorescence polarization, uHTS hits (AID 624382); assay type: functional; details: read-out: IC50_Mean
[17] = inhibitors of intracellular T. cruzi replication, confirmation, NIH3T3 host cells, beta-gal luminescence (AID 2044); assay type: functional, cell-based;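 further: intracellular parasites grown in NIH/3T3 mouse fibroblasts as host cells; luminescent beta-galactosidase reporter signal from transgenic T. cruzi replicating inside host cells; inhibitors lower the luminescence signal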
Kallikrein-7 = Kallikrein-7 (Homo sapiens, UniProt P49862); assay: Fluorescence Intensity-based biochemical primary high throughput dose response assay to identify activators of kallikrein-7 (K7) zymogen.
Kallikrein-7, sequence (P49862 whole entry): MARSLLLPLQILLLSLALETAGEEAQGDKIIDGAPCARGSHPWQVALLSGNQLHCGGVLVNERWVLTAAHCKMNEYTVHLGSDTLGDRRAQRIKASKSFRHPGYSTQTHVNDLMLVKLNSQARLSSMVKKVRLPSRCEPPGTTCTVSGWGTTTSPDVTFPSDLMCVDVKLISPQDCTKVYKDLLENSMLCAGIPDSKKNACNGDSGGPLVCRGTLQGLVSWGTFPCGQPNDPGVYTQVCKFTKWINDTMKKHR

[18] = cytotoxicity toward NIH3T3 fibroblasts, dose response, counter-screen, cell-based, ATP luminescence, mouse fibroblasts (AID 2010); assay type: functional;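 further: cells exposed to compound for about 90 hours before reading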
[19] = target: T8, Low molecular weight phosphotyrosine protein phosphatase (Homo sapiens, UniProt P24666); assay type: functional; details: read-out: IC50_Mean
T8 sequence (P24666 whole entry): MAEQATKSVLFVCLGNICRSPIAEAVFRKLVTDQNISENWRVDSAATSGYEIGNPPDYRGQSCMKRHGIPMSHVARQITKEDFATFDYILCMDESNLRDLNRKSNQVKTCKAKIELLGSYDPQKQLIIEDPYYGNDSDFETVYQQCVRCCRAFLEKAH

[20] = target: T8, Low molecular weight phosphotyrosine protein phosphatase; assay type: functional; details: read-out: IC50_Mean; remark: listed apart in the source
H4 = assay: Luminescence Cell-Based Dose Response HTS to Identify Activators of 5'UTR Stem-Loop Driven Prion Protein mRNA Translation in H4 Neuroglioblastoma Cells. [Related pubchem assays: 1829 (Project Summary), 1814 (Primary HTS)]; assay type: functional; details: Homo sapiens
[21] = P. falciparum 3D7-ScDHODH growth inhibitors, dose response, SYBR Green, dry powder samples (AID 1159570); assay type: functional, cell-based;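 further: parasite growth measured after 72 hours of compound exposure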
[22] = P. falciparum ATP4 D1247Y mutant growth inhibitors, dose response, NITD609-resistant line, SYBR Green, dry powder (AID 1159571); assay type: functional, cell-based;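 further: parasites synchronized at ring stage by sorbitol before testing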
[23] = P. falciparum Dd2 growth inhibitors, dose response, SYBR Green, dry powder samples (AID 1159566); assay type: functional, cell-based;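 further: potency for growth inhibition with lower SYBR green DNA signal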
[24] = P. falciparum Dd2 growth inhibitors, dose response, SYBR Green, cherry-picked samples (AID 1159567); assay type: functional, cell-based

## CC1=NN2C(=N)/C(=C\c3ccc(SCc4ccccc4)o3)C(=O)N=C2S1
[1]
  IC50: > 50 µM (not active)

## COc1cc2c(cc1OC)CN(c1ccc([N+](=O)[O-])c(C(F)(F)F)c1)CC2
[2]
  AC50: > 52 µM (inactive)
[3]
  AC50: > 52 µM (inactive)
[4]
  EC50: 43.1 µM (active)
[5]
  AC50: 29.6 µM (active)

## CC1CCc2c(sc(NC(=O)c3ccc(Cn4cc([N+](=O)[O-])cn4)o3)c2C#N)C1 (configuration not stated)
[6]
  IC50: 4.29 µM (active)
Estrogen receptor
  IC50: 8.35 µM (active)
Estrogen receptor beta [7]
  IC50: 11.1 µM (not active)
Estrogen receptor beta [8]
  IC50: 2.32 µM (active)

## Cc1ccc(C)n1-c1ccc(-c2nnco2)cc1
Prothrombin
  IC50: > 50 µM (not active)

## CN1C(=O)CC(N2CCN(C(=O)c3ccccc3)CC2)C1=O (configuration not stated)
[9]
  IC50: > 100 µM (active)

## Cc1cc(=O)[nH]c(SCC(=O)NCC2CCCO2)n1 (configuration not stated)
Prothrombin
  IC50: > 50 µM (not active)

## O=C1CC(N2CCN(S(=O)(=O)c3ccccc3)CC2)C(=O)N1c1ccccc1 (configuration not stated)
[10]
  IC50: 9.4 µM (not active)

## C=CCn1c(COc2ccccc2F)nnc1SCC(=O)NC(=O)NCc1ccco1
[6]
  IC50: 12.2 µM (active)
Estrogen receptor beta [7]
  IC50: > 50 µM (not active)
Estrogen receptor beta [8]
  IC50: 3.27 µM (active)

## Clc1ccc(-c2cc(-c3ccccn3)on2)c(Cl)c1
[11]
  AC50: 7.08 µM (active)
[2]
  AC50: > 52 µM (inactive)
[3]
  AC50: > 52 µM (inactive)
Protein skinhead-1
  IC50: > 100 µM (inactive)
[5]
  AC50: 3.73 µM (active)

## CCOC(=O)CSc1nnc(CNC(=O)c2ccc(S(=O)(=O)N3CCCC3)cc2)n1C
Prothrombin
  IC50: > 50 µM (not active)

## Cc1ccc(S(=O)(=O)N2CCN(Cc3nc(O)c4c(C)c(C)sc4n3)CC2)cc1
[9]
  IC50: > 100 µM (active)

## O=C(Nc1ccc2c(c1)OCO2)c1cc(-c2ccc(O)cc2)on1
[12]
  IC50: 11.5 µM (active)
[13]
  AC50: 356 nM (active)
[14]
  EC50: > 112 µM (not active)
cells
  EC50: > 10 µM (not active)
[15]
  EC50: > 112 µM (not active)
[16]
  IC50: > 66.6 µM (inactive)
[17]
  EC50: < 100 nM (active)
Kallikrein-7
  EC50: 62.9 µM (inactive)
[18]
  EC50: 6.74 µM (active)

## O=c1c(Cl)c(N/N=C/c2ccc(Cl)cc2)cnn1-c1ccccc1
[19]
  IC50: > 80 µM (inactive)
[20]
  IC50: 35 µM (inactive)
H4
  EC50: > 120 µM (not active)
[10]
  IC50: 1.93 µM (active)

## COCC#Cc1ccc(CC[C@H]2O[C@H]3CC[C@H](CO)O[C@H]3C[C@@H]2n2cc(C3CC3)nn2)cc1
[21]
  AC50: 3.37 µM (active)
[22]
  AC50: 3.76 µM (active)
[23]
  AC50: 2.15 µM (active)
[24]
  AC50: 2.33 µM (active)

## OC[C@H]1Nc2ccc(C#Cc3cccnc3)cc2[C@H]2NCC[C@H]21
[21]
  AC50: 8.84 µM (active)
[22]
  AC50: 11.2 µM (active)
[23]
  AC50: 7.59 µM (active)
[24]
  AC50: 1.08 µM (active)

## CC[n+]1ccccc1/C=C1\Sc2ccc(C)cc2N1C
cells
  EC50: 0.022 µM (active)
[17]
  EC50: < 100 nM (active)
[18]
  EC50: > 60 µM (not active)
